Laboratory results published in patent US11708340B2, “Benzothia(di)azepine compounds and their use as bile acid modulators” (Albireo AB, priority 2019, dated 2023).

How the values were obtained:
Human LBAT = target: T1, Human LBAT (Homo sapiens, UniProt Q14973); experiment: LBAT (h/m) assay, human LBAT-overexpressing cells, 3H-taurocholic acid uptake; assay type: cell-based; conditions: 0.3 μM 3H-taurocholic acid and 7.5 μM cold taurocholic acid, 20 minutes, read-out: hLBAT IC50
T1 construct: expressed in transfected cells; Geneticin selection
T1 sequence (Q14973 1-349): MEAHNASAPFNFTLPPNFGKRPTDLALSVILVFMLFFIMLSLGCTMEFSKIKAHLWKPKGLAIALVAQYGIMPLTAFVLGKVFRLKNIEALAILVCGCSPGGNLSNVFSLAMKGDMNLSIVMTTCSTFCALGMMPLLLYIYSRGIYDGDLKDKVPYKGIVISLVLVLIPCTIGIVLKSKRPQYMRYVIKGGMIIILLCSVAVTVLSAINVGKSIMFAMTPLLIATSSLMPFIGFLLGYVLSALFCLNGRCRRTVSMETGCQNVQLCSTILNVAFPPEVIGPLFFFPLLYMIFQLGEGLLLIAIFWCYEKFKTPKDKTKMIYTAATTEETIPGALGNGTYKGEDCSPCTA
Method: 20,000 cells (Human or Mouse LBAT-overexpressing cells) were seeded in 96-wells plate (Corning CLS3809) in 100 μL MEM-alpha medium (Gibco 12571-063) supplemented with 10% FBS (Gibco 10438026) containing Geneticin (Gibco 10131-027) (1 mg/mL) and incubated at 37° C. in 5% CO2 for 24 hours. After incubation, media was decanted from the wells and cells were washed two times with 300 μL of basal MEM-alpha medium (FBS-free). After decanting basal MEM-alpha medium each time, plates were tapped against paper towel to ensure maximum removal of residual media.
For human LBAT, incubation mix was prepared by adding test inhibitor dilutions (3-fold serial dilution in DMSO (Sigma D2650), 10 points) in MEM-alpha (without FBS) containing 0.3 μM 3H-taurocholic acid (ARC ART-1368) and 7.5 μM cold taurocholic acid (Sigma T4009) (maintaining 0.2% final DMSO concentration). For mouse LBAT, incubation mix was prepared by adding test inhibitor dilutions (3-fold serial dilution in DMSO, 10 points) in MEM-alpha (without FBS) containing 0.3 μM 3H-taurocholic acid and 25 μM cold taurocholic acid maintaining 0.2% final DMSO concentration).
50 μL of incubation mix containing test inhibitors was then added to the wells (in duplicate) and the plates were incubated for 20 minutes in a CO2 incubator at 37° C. After incubation, the reaction was stopped by keeping the plates on ice water mix for 2-3 minutes and then the incubation mix was aspirated completely from the wells. The wells were washed two times with 250 μL of chilled unlabeled 1 mM taurocholic acid dissolved in HEPES (Gibco 15630080)-buffered (10 mM) HBSS (Gibco 14175079) (pH 7.4). The plates were tapped against a paper towel after every wash to ensure maximum removal of blocking buffer.
100 μL of MicroScint-20 (PerkinElmer 6013621) was added to the wells and kept overnight at room temperature before reading the plates in TopCount NXT™ Microplate Scintillation and Luminescence Counter from PerkinElmer under 3H Test protocol (set at 120 seconds reading time per well, with normal plate orientation).
(§1) All test compounds were provided in powder form at room temperature. 10 mM DMSO stocks of the test compounds were prepared, aliquoted and stored at −20° C. From the 10 mM DMSO stock of the compounds, a 3-fold serial dilution in DMSO was prepared to get a total of 10 dilutions of the test compounds. 0.5 μL of this dilution in DMSO was added to 250 μL of FBS-free basal media containing 3H-taurocholic acid and cold taurocholic acid to prepare the incubation mixture.

Human IBAT = target: T2, Human IBAT (Homo sapiens, UniProt Q12908); experiment: IBAT (h/m) assay, human IBAT-overexpressing cells, 3H-taurocholic acid uptake; assay type: cell-based; conditions: highest test concentration 10 μM, 20 minutes, read-out: hIBAT IC50
T2 construct: expressed in transfected cells; Puromycin selection
T2 sequence (Q12908 1-348): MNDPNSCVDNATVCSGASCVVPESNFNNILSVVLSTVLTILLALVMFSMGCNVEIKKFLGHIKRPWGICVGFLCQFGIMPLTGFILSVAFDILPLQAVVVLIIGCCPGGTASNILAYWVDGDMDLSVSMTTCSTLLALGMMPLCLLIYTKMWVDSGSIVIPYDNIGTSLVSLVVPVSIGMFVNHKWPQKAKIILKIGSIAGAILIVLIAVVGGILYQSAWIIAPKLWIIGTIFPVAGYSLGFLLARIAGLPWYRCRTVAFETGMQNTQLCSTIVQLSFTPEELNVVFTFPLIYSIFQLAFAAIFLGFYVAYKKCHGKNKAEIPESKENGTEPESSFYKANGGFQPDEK
Method: 10,000 cells (Human or Mouse IBAT-overexpressing cells) were seeded in 96-wells plate (Corning CLS3809) in 200 μL MEM-alpha medium (Gibco 12571-063) supplemented with 10% FBS (Gibco 10438026) containing Puromycin (Gibco A1113803) (10 μg/mL) and incubated at 37° C. in 5% CO2 for 48 hours. After incubation, media was decanted from the wells and cells were washed two times with 300 μL of basal MEM-alpha medium (FBS-free). After decanting basal MEM-alpha medium each time, plates were tapped against paper towel to ensure maximum removal of residual media. Test inhibitor dilutions (highest test concentration being 10 μM, 3-fold serial dilution, 10 points) prepared in DMSO (Sigma D2650) were added in incubation mix (maintaining 0.2% final DMSO concentration) containing 0.25 μM 3H-taurocholic acid (ARC ART-1368) and 5 μM of cold taurocholic acid (Sigma T4009). 50 μL of incubation mix containing test inhibitors was then added to the wells (in duplicate) and the plates were incubated for 20 minutes in a CO2 incubator at 37° C. After incubation, the reaction was stopped by keeping the plates on ice water mix for 2-3 minutes and then the incubation mix was aspirated completely from the wells. The wells were washed two times with 250 μL of chilled unlabeled 1 mM taurocholic acid dissolved in HEPES (Gibco 15630080)-buffered (10 mM) HBSS (Gibco 14175079) (pH 7.4). The plates were tapped against a paper towel after every wash to ensure maximum removal of blocking buffer.
100 μL of MicroScint-20 (PerkinElmer 6013621) was added to the wells and kept overnight at room temperature before reading the plates in TopCount NXT™ Microplate Scintillation and Luminescence Counter from PerkinElmer under 3H Test protocol (set at 120 seconds reading time per well).
as §1

IC50 (Human LBAT) [nM] | IC50 (Human IBAT) [nM] | Structure (SMILES)
591 | > 10000 | CCCC[C@@H]1CN(c2ccc(F)cc2)c2cc(SC)c(O/C=C/C(=O)O)cc2S(=O)(=O)N1C (single isomer, unassigned) [Example 22]
354 | > 10000 | CCCC[C@H]1CN(c2ccc(F)cc2)c2cc(SC)c(O/C=C/C(=O)O)cc2S(=O)(=O)C1 (single isomer, unassigned) [Example 27]
1.9 | > 3330 | CCCC[C@@H]1CN(c2ccc(F)cc2)c2cc(SC)c(O/C=C/C(=O)O)cc2S(=O)(=O)C1 (single isomer, unassigned) [Example 28]
3 | 644 | CCCC[C@H]1CN(c2ccc(F)cc2)c2cc(SC)c(O/C=C/C(=O)O)cc2S(=O)(=O)N1C (single isomer, unassigned) [Example 21]
8.7 | > 10000 | CCCCC1CN(c2ccc(F)cc2)c2cc(SC)c(O/C=C/C(=O)O)cc2S(=O)(=O)C1 (racemic) [Example 26, (E)-3-((3-butyl-5-(4-fluorophenyl)-7-(methylthio)-1,1-dioxido-2,3,4,5-tetrahydro-1,5-benzothiazepin-8-yl)oxy)acrylic Acid]
 | > 10000 | CCCCC1CN(c2ccc(F)cc2)c2cc(SCC)c(O/C=C/C(=O)O)cc2S(=O)(=O)C1 (centres unmarked) [Example 32, (E)-3-((3-Butyl-7-(ethylthio)-5-(4-fluorophenyl)-1,1-dioxido-2,3,4,5-tetrahydro-1,5-benzothiazepin-8-yl)oxy)acrylic Acid]
469 |  | CCCC[C@@H]1CN(c2ccccc2)c2cc(SC)c(O/C=C/C(=O)O)cc2S(=O)(=O)C1 (single isomer, unassigned) [Example 2]
4.5 | 1150 | CCCCC1CN(c2ccc(F)cc2)c2cc(SC)c(O/C=C/C(=O)O)cc2S(=O)(=O)N1C (racemic) [Example 20, (E)-3-((3-butyl-5-(4-fluorophenyl)-2-methyl-7-(methylthio)-1,1-dioxido-2,3,4,5-tetrahydro-1,2,5-benzothiadiazepin-8-yl)oxy)acrylic Acid]

The next lines start with the compound.

Structure (SMILES) | IC50 (Human LBAT) [nM] | IC50 (Human IBAT) [nM]
CCCCC1CN(c2ccccc2)c2cc(SC)c(O/C=C/C(=O)O)cc2S(=O)(=O)N1 (centres unmarked) [Example 9, (E)-3-((3-butyl-7-(methylthio)-1,1-dioxido-5-phenyl-2,3,4,5-tetrahydro-1,2,5-benzothiadiazepin-8-yl)oxy)acrylic Acid] | 8.2 | 
CCCC[C@H]1CN(c2ccccc2)c2cc(SC)c(O/C=C(\F)C(=O)O)cc2S(=O)(=O)N1C (single isomer, unassigned) [Example 12] | 78 | 
CCCCC1CN(c2ccccc2)c2cc(SCC)c(O/C=C/C(=O)O)cc2S(=O)(=O)C1 (centres unmarked) [Example 30, (E)-3-((3-Butyl-7-(ethylthio)-1,1-dioxido-5-phenyl-2,3,4,5-tetrahydro-1,5-benzothiazepin-8-yl)oxy)acrylic Acid] | 9.5 | > 10000
CCC1CN(c2ccccc2)c2cc(SC)c(O/C=C/C(=O)O)cc2S(=O)(=O)C1 (centres unmarked) [Example 8, (E)-3-((3-ethyl-7-(methylthio)-1,1-dioxido-5-phenyl-2,3,4,5-tetrahydro-1,5-benzothiazepin-8-yl)oxy)acrylic Acid] | 242 | 
CCCC[C@H]1CN(c2ccccc2)c2cc(SC)c(O/C=C(\F)C(=O)O)cc2S(=O)(=O)C1 (single isomer, unassigned) [Example 5] | 28 | 
CCCCC1CN(c2ccccc2)c2cc(SC)c(O/C=C/C(=O)O)cc2S(=O)(=O)N1C (racemic) [Example 14, (E)-3-((3-butyl-2-methyl-7-(methylthio)-1,1-dioxido-5-phenyl-2,3,4,5-tetrahydro-1,2,5-benzothiadiazepin-8-yl)oxy)acrylic Acid] | 3.4 | 
CCCCC1CN(c2ccccc2)c2cc(SCC)c(O/C=C/C(=O)O)cc2S(=O)(=O)N1C (racemic) [Example 17, (E)-3-((3-butyl-7-(ethylthio)-2-methyl-1,1-dioxido-5-phenyl-2,3,4,5-tetrahydro-1,2,5-benzothiadiazepin-8-yl)oxy)acrylic Acid] | 2.3 | 
CCCC[C@@H]1CN(c2ccccc2)c2cc(SC)c(O/C=C/C(=O)O)cc2S(=O)(=O)N1C (single isomer, unassigned) [Example 16] | 105 | 
CCCCC1CN(c2ccccc2)c2cc(SCC)c(O/C=C/C(=O)O)cc2S(=O)(=O)N1 (centres unmarked) [Example 31, (E)-3-((3-Butyl-7-(ethylthio)-1,1-dioxido-5-phenyl-2,3,4,5-tetrahydro-1,2,5-benzothiadiazepin-8-yl)oxy)acrylic Acid] |  | > 10000
CCCCC1CN(c2ccccc2)c2cc(SC)c(O/C=C(\F)C(=O)O)cc2S(=O)(=O)N1C (centres unmarked) [Example 11, (Z)-3-((3-butyl-2-methyl-7-(methylthio)-1,1-dioxido-5-phenyl-2,3,4,5-tetrahydro-1,2,5-benzothiadiazepin-8-yl)oxy)-2-fluoroacrylic Acid] | 1.1 | 830
CCC1CN(c2ccccc2)c2cc(SC)c(O/C=C(\F)C(=O)O)cc2S(=O)(=O)C1 (centres unmarked) [Example 7, (Z)-3-((3-ethyl-7-(methylthio)-1,1-dioxido-5-phenyl-2,3,4,5-tetrahydro-1,5-benzothiazepin-8-yl)oxy)-2-fluoroacrylic Acid] | 73 | 
CCCC[C@H]1CN(c2ccc(F)cc2)c2cc(SCC)c(O/C=C/C(=O)O)cc2S(=O)(=O)N1C (single isomer, unassigned) [Example 24] | 0.34 | 265
CCCC[C@@H]1CN(c2ccc(F)cc2)c2cc(SCC)c(O/C=C/C(=O)O)cc2S(=O)(=O)N1C (single isomer, unassigned) [Example 25] | 267 | 
CCCC[C@@H]1CN(c2ccccc2)c2cc(SCC)c(O/C=C/C(=O)O)cc2S(=O)(=O)N1C (single isomer, unassigned) [Example 19] | 70 | > 10000
